Test results from US20070259875A1, “Triaryl substituted imidazole derivatives and taste-inhibiting uses thereof” (priority 2006, published 2007).

Columns and labels:
human TRPM5 = molecular target: T1, human TRPM5 (Homo sapiens, UniProt Q9NZQ8); assay: FLIPR membrane potential dye screening assay, ATP-stimulated, TRPM5-transfected HEK293 cells; format: cell-based; conditions: maximum percent inhibition at concentrations between 10 μM and 100 μM; HEK293 cells with human TRPM5; 10 μM ATP; versus negative control wells
T1 construct: expressed in transfected cells
T1 sequence (Q9NZQ8 1-1165): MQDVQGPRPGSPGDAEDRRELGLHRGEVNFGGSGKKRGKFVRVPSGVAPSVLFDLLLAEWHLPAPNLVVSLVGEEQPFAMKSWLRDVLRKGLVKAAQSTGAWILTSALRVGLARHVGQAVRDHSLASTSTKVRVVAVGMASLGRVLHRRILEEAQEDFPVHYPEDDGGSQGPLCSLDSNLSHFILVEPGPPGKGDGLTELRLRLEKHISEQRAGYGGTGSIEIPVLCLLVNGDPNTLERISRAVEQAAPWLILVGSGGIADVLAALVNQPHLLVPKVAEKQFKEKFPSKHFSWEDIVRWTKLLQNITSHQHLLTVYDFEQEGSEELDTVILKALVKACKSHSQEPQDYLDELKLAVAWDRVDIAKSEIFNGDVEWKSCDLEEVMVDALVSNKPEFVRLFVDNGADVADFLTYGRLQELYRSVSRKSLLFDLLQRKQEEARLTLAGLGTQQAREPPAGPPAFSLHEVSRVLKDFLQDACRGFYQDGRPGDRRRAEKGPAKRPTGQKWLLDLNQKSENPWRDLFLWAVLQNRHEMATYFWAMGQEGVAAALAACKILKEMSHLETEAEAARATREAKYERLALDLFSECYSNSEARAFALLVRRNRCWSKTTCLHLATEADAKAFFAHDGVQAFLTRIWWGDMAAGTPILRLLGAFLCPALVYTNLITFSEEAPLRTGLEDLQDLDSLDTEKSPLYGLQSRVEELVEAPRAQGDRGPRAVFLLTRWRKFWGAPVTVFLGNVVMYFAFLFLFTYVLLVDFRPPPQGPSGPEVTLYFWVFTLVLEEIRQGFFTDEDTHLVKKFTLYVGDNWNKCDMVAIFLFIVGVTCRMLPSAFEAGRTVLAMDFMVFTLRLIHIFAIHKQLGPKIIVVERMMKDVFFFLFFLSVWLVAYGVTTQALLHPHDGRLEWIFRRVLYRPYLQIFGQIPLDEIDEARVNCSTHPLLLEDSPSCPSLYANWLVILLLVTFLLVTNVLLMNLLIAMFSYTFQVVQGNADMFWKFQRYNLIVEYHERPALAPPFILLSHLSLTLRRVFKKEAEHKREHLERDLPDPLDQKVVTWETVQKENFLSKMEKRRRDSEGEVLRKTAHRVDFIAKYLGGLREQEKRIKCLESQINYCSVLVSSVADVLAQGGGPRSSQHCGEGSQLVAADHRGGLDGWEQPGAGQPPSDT
Method: Modulation of the activity of human taste receptor proteins was measured in live cells on a fluorescent imaging plate reader (FLIPR). The basis of the assay (shown in FIG. 1) is the calcium-dependent activation of the ion channel which occurs via by activation of a G-protein coupled receptor (GPCR). GPCR activation by an appropriate agonist causes a transient increase in intercellular Ca^2+ ion concentration which in turn causes the ion channel to open, allowing an influx of Na^+ ions. This influx leads to a change in the membrane potential of the cell, which can be monitored as a change in the fluorescent signal from voltage-dependent (membrane potential) fluorescent dyes.
A schematic representation of the assay is shown in FIGS. 2(A) and 2(B), where traces of fluorescent response versus time are shown for cells transfected with a plasmid encoding human TRPM5 or cells containing sham plasmid controls.
For the screening assay, the human TRPM5 gene was cloned, HEK293 cells were transfected with a plasmid containing the gene, and a stable, high expression clone was chosen for the screen. Cells were grown in standard media at 37° C. The day before screening, the cells were removed from flasks and added to 384 well clear bottom plates (12K cells in 20 μL/well). On the assay day, 20 μL of membrane potential dye (Part No. R8123, Molecular Devices Corp.) was added to the cells and dye was allowed to be taken up, i.e., loaded, into the cells for 1 hr at 37° C. […] The assay was started by addition of 10 μL of solution from the compound plate into the cell plate. During this process, continuous fluorescent recordings were made simultaneously for all wells. After addition of the compound solution, the tips were automatically washed and 10 μL of a stimulation solution of 60 μM ATP (an agonist for an endogenous purinurgic GPCR), was added to all wells of the cell plate (to give a final concentration of 10 μM ATP). The height of the response was calculated and percent inhibition values, versus negative control wells, was calculated for the test samples.
(§1) Unless otherwise indicated, the data in Table 1 were determined using the assays described above, providing maximum percent inhibition data at concentrations between 10 μM and 100 μM.

[1] = tested on: GPCR-mediated calcium activation step; assay: Calcium counterscreen (calcium sensitive dye, ATP stimulation, same cells); format: cell-based; conditions: maximum percent inhibition at concentrations between 10 μM and 100 μM, Calcium3 dye
Method: Two counterscreen assays were run on separate cell plates utilizing the same cells as described above. In the calcium counterscreen, the cells were loaded with a calcium sensitive dye (Calcium3 Dye, Part no. 8090, Molecular Devices Corp.) and stimulated by ATP to check for compounds that block the GPCR-mediated calcium activation step. In the KCl counterscreen, cells were stimulated with 120 mM KCl (to give a final concentration of 20 mM KCl) instead of ATP to check for compounds that inhibit the membrane potential response by virtue of being non-specific ion channel blockers.
as §1

Compound | TRPM5 Activity (maximum percent inhibition) (human TRPM5) | melting point | Calcium Counterscreen (maximum percent inhibition) [1]
COC(=O)Nc1ccc(-c2nc(-c3ccccc3)c(-c3ccccc3)[nH]2)cc1 [Example 5, methyl4-(4,5-diphenyl-1H-imidazol-2-yl)phenylcarbamate] | 19% | – | 0%
CC(=O)Nc1ccc(-c2nc(-c3ccccc3)c(-c3ccccc3)[nH]2)cc1 [Example 6, N-[4-(4,5-diphenyl-1H-imidazol-2-yl)phenyl]acetamide] | 29% | – | 0%
Nc1ccc(-c2nc(-c3ccccc3)c(-c3ccccc3)[nH]2)cc1 [Example 3, 4-(4,5-diphenyl-1H-imidazol-2-yl)aniline] | 42% | – | 0%
OCc1ccc(-c2nc(-c3ccccc3)c(-c3ccccc3)[nH]2)cc1 [Example 2, [4-(4,5-diphenyl-1H-imidazol-2-yl)phenyl]methanol] | 50% | 50 °C | 0%
Oc1ccc(-c2nc(-c3ccccc3)c(-c3ccccc3)[nH]2)cc1 [Example 4, 4-(4,5-diphenyl-1H-imidazol-2-yl)phenol] | 51% | – | 0%
COC(=O)c1ccc(-c2nc(-c3ccccc3)c(-c3ccccc3)[nH]2)cc1 [Example 1, methyl4-(4,5-diphenyl-1H-imidazol-2-yl)benzoate] | 79% | – | 0%

The next lines start with results.

TRPM5 Activity (maximum percent inhibition) (human TRPM5) | melting point | Compound | Calcium Counterscreen (maximum percent inhibition) [1]
0% | – | N#Cc1ccc(-c2nc(-c3ccccc3)c(-c3ccccc3)[nH]2)cc1 [Example 7, 4-(4,5-diphenyl-1H-imidazol-2-yl)benzonitrile] | 0%
100% | – | O=[N+]([O-])c1ccc(-c2nc(-c3ccccc3)c(-c3ccccc3)[nH]2)cc1 [Example 10, 2-(4-nitro-phenyl)-4,5-diphenyl-1H-imidazole] | 0%
90% | – | CS(=O)(=O)NCc1ccc(-c2nc(-c3ccccc3)c(-c3ccccc3)[nH]2)cc1 [Example 8, N-[4-(4,5-diphenyl-1H-imidazol-2-yl)benzyl]methanesulfonamide] | 0%
60% | – | O=C(O)c1ccc(-c2nc(-c3ccccc3)c(-c3ccccc3)[nH]2)cc1 [Example 9, 4-(4,5-diphenyl-1H-imidazol-2-yl)benzoic acid] | 0%
